{Puro} = puromycin of the RNA
Legend:
D50S = test: X-ray crystallography of D50S-ligand complex crystals (co-crystallization or soaking); type: binding, D. radiodurans; settings: result in words, from complex crystals and electron-density maps
Experimental: Growth of D50S crystals: D. radiodurans LRSs were isolated, and crystals of D50S belonging to the space-group […] were grown as described in Example 1, above. Co-crystallization of D50S with antibiotics was carried out in the presence of 0.8-3.5 mM of the antibiotics chloramphenicol, clindamycin, erythromycin, and roxithromycin. Co-crystallization of D50S with clarithromycin was achieved by soaking D50S crystals in solutions containing 0.01 mM of this antibiotic.
X-ray diffraction: Data were collected at 85 K from shock-frozen crystals with a bright SR beam at ID19 at APS/ANL, ID14/2 and 4 at ESRF/EMBL, and at BW6 at DESY. Data were recorded on MAR345, Quantum 4, or APS-CCD detectors and processed with HKL2000 (Otwinowski, Z. and Minor, W., 1997. Macromolecular Crystallography, Pt A 276, 307).
Placements and refinement: The 3.1 Å structure of D50S described in Example 1, above, was refined against the structure factor amplitudes of each of the antibiotic-D50S complexes, using rigid body refinement as implemented in CNS (Brunger, A. T. et al., 1998. Acta Crystallographica Section D-Biological Crystallography 54, 905). SigmaA-weighted difference maps were used for the initial manual placement of the antibiotics. Each of the D50S-antibiotic models was further refined using REFMAC software (Murshudov, G. N. et al., 1999. Acta Cryst section D55, 247). For the calculation of free R-factor a subset of reflections (10% of the data) was omitted from the refinement. The structure coordinates of the antibiotic-D50S complexes were submitted to the PDB under accession numbers 1JZX, 1JZY, 1JZZ, 1K00, and 1K01.
Crystallization: Crystals of the large ribosomal subunit of D. radiodurans (D50S) were generated as described in Example 1 above (Harms J. et al., 2001. Cell 107, 679-688; Schlüenzen et al., 2001. Nature 413, 814-821). […]
X-ray diffraction: Data were collected at 85 K from shock-frozen crystals using a synchrotron radiation beam at ID 19 at Argonne Photon Source/Argonne National Laboratory (APS/ANL) and ID14/2, ID14/4 at the European Synchrotron Radiation Facility/European Molecular Biology Laboratory (ESRF/EMBL). Data were recorded on Quantum 4 or APS-CCD detectors and processed with HKL2000 (Otwinowski, Z. and Minor, W., 1997. Macromolecular Crystallography Pt A. 276, 307) and the CCP4 suite (Bailey, S., 1994. Acta Cryst D. 50, 760).
Localization and refinement: The 3.1 Å structure of D50S (PDB accession code 1LNR) was refined against the structure factor amplitudes of each of the two D50S-antibiotic complexes, using rigid body refinement as implemented in CNS (Brunger, A. T. et al., 1998. Acta Crystallographica Section D-Biological Crystallography 54, 905-921). […] The positions of the antibiotics were readily determined from sigmaA-weighted difference maps. […]

E. coli = settings: U/U at 23S rRNA positions C803DR/C1773DR; cited from earlier work
Haemophilus influenzae = Haemophilus influenzae (A/C); cited from earlier work
Heliobacter pylori = Heliobacter pylori (U/U); cited from earlier work
ribosomes [1] = settings: cited from earlier work; for binding to the ribosome: result in words
ribosomes [2] = settings: cited from earlier work

## CC[C@H]1OC(=O)[C@H](C)C(=O)[C@H](C)[C@@H](O[C@@H]2O[C@H](C)C[C@H](N(C)C)[C@H]2O)[C@](C)(OCC=Cc2cnc3ccccc3c2)C[C@@H](C)C(=O)[C@H](C)[C@H]2NC(=O)O[C@@]21C [ABT-773]
D50S
  binding to D50S: high affinity
E. coli
  susceptibility to ABT-773: equally susceptible
Haemophilus influenzae
  susceptibility to ABT-773: equally susceptible
Heliobacter pylori
  susceptibility to ABT-773: equally susceptible

## COc1ccc(C[C@H](N)C(=O)N[C@H]2[C@@H](O)[C@H](n3cnc4c(N(C)C)ncnc43)O[C@@H]2CO)cc1 [Puromycin]
Ribosomes [1]
  binding to the ribosome: binds weakly

## CC[C@H]1OC(=O)[C@H](C)C(=O)[C@H](C)[C@@H](O[C@@H]2O[C@H](C)C[C@H](N(C)C)[C@H]2O)[C@](C)(OC)C[C@@H](C)C(=O)[C@H](C)[C@@H](O)[C@]1(C)O [RU56006]
Ribosomes [1]; compared with erythromycin
  Kd: same order of magnitude as that of erythromycin

## CC[C@H]1OC(=O)[C@H](C)[C@@H](O[C@H]2C[C@@](C)(OC)[C@@H](O)[C@H](C)O2)[C@H](C)[C@@H](O[C@@H]2O[C@H](C)C[C@H](N(C)C)[C@H]2O)[C@](C)(O)C[C@@H](C)CN(C)[C@H](C)[C@@H](O)[C@]1(C)O [azithromycin, 9-deoxy-9A-methyl-9A-aza-9A-homoerythromycin]
D50S
  binding to D50S: high affinity

## CC[C@H]1OC(=O)[C@H](C)[C@@H](O[C@H]2C[C@@](C)(OC)[C@@H](O)[C@H](C)O2)[C@H](C)[C@@H](O[C@@H]2O[C@H](C)C[C@H](N(C)C)[C@H]2O)[C@](C)(O)C[C@@H](C)C(=O)[C@H](C)[C@@H](O)[C@]1(C)O [erythromycin]
Ribosomes [2]
  length of peptides produced by erythromycin-bound ribosomes: up to 8 residues

## CSC[S@+]([O-])C[C@H](CO)NC(=O)/C=C/c1c(C)[nH]c(=O)[nH]c1=O [sparsomycin]
Ribosomes [1]
  binding to the ribosome: weak binding
D50S
  binding to D50S: almost quantitative binding

## ACCP: puromycin-coupled RNA molecule having the sequence 5′-ACC-Puro; substrate analog mimicking the CCA 3′ end of the tRNA acceptor stem (RNA, 3' {Puro}, backbone not given here)
D50S
  binding to D50S: bind well
